Experimental data reported in patent US9233167B2, “Oligomer-opioid agonist conjugates” (NEKTAR THERAPEUTICS, priority 2007, dated 2016).

Legend:
[1] = rats, 25 mg/kg intravenously, one hour after injection
[2] = target: T1, recombinant human delta opioid receptor (Homo sapiens (Human), UniProt P41143); conditions: Ki relative to nalbuphine
Protocol: (§1) Using conventional receptor binding assay techniques, several molecules were assayed to determine binding activity at kappa, mu and delta opioid subtypes of opioid receptors.
(§2) Cells were plated in 24 well plates at a density of 0.2-0.3*10^6 cells/well and washed with assay buffer containing 50 mM Tris.HCl and 5 mM MgCl2 (pH 7.4). Competition binding assays were conducted in whole cells incubated with increasing concentrations of test compounds in the presence of appropriate concentration of radioligand. 0.5 nM ^3H Naloxone, 0.5 nM ^3H Diprenorphine and 0.5 nM ^3H DPDPE were used as the competing radioligands for mu, kappa and delta receptors respectively. Incubations were carried out for two hours at room temperature using triplicate wells at each concentration. At the end of the incubation, cells were washed with 50 mM Tris HCl (pH 8.0), solubilized with NaOH and bound radioactivity was measured using a scintillation counter.
(§3) Specific binding is determined by subtraction of the cpm bound in the presence of 50-100× excess of cold ligand. Binding data assays were analyzed using GraphPad Prism 4.0 and IC50 is generated by non-linear regression from dose-response curves.

[3] = target: recombinant human kappa opioid receptor (Homo sapiens (Human), UniProt P41145); assay type: binding
Protocol: as §1, §2, §3

[4] = target: recombinant human mu opioid receptor (Homo sapiens (Human), UniProt P35372); assay type: binding
Protocol: as §1, §2, §3

[5] = target: T1, recombinant human delta opioid receptor; conditions: GTP-γS binding, up to 10 μM
Protocol: The reaction is initiated by 0.3 nM [^35S]GTPγS for an additional 30 minutes incubation period.

T1 sequence (P41143 whole entry, looked up): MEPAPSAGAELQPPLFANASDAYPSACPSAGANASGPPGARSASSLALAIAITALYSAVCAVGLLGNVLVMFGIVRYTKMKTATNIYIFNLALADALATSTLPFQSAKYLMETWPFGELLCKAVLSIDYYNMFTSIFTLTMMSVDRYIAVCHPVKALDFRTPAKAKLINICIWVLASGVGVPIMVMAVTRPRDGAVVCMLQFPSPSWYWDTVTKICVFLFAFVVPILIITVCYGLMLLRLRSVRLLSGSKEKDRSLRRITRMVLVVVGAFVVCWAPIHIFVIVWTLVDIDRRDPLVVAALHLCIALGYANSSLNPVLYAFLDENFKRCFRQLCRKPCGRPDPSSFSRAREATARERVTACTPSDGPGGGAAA

SMILES: COCCOCCOCCO[C@H]1CC[C@@]2(O)[C@H]3Cc4ccc(O)c5c4[C@@]2(CCN3CC2CCC2)[C@H]1O5 [6-O-mPEG3-Nalbuphine, 6-O-mPEG3-nalbuphine]
- brain:plasma ratio [1]: 0.23
- Fold vs Nalbuphine At DELTA [2]: 0.51
- Fold vs Nalbuphine at KAPPA [3]: 8.40
- Fold vs Nalbuphine At MU [4]: 1.92
- effect at the delta opioid receptor [5]: no effect
